Test results taken from ChEMBL document CHEMBL1159093, “Discovery and optimization of RO-85, a novel drug-like, potent, and selective P2X3 receptor antagonist” (Bioorg Med Chem Lett, 2010).

Key:
[1] = molecular target: D(2) dopamine receptor (Homo sapiens) (UniProt P14416); assay: Displacement of [3H]methyl-spiperone from human recombinant D2S receptor expressed in HEK293 cells at 10 uM after 60 mins by scintillation counting; assay type: cell-based
[2] = molecular target: D(1B) dopamine receptor (Homo sapiens) (UniProt P21918); assay: Displacement of [3H]SCH 23390 from human recombinant dopamine D5 receptor expressed in rat GH4 cells at 10 uM after 60 mins by scintillation counting; assay type: cell-based
[3] = molecular target: Muscarinic acetylcholine receptor M2 (Homo sapiens) (UniProt P08172); assay: Displacement of [3H]AF-DX 384 from human recombinant muscarinic M2 receptor expressed in CHO cells at 10 uM after 60 mins by scintillation counting; assay type: cell-based
[4] = molecular target: Prostaglandin E2 receptor EP2 subtype (Homo sapiens) (UniProt P43116); assay: Displacement of [3H]PGE2 from human recombinant EP2 receptor expressed in HEK293 cells at 10 uM after 120 mins by scintillation counting; assay type: cell-based
Rattus norvegicus [5] = species: Rattus norvegicus; assay: Displacement of [3H]a,b-MeATP from P2X receptor in rat urinary bladder at 10 uM after 120 mins by scintillation counting
[6] = molecular target: 5-hydroxytryptamine receptor 1B (Rattus norvegicus) (UniProt P28564); assay: Displacement of [125I]CYP from 5HT1B receptor in rat cerebral cortex at 10 uM after 120 mins by scintillation counting in presence of 30 uM isoproterenol; assay type: tissue-based
[7] = molecular target: 5-hydroxytryptamine receptor 2A (Homo sapiens) (UniProt P28223); assay: Displacement of [3H]ketanserin from human recombinant 5HT2A receptor expressed in HEK293 cells at 10 uM after 60 mins by scintillation counting; assay type: cell-based
[8] = molecular target: 5-hydroxytryptamine receptor 2B (Homo sapiens) (UniProt P41595); assay: Displacement of [125I](+/-)DOI from human recombinant 5HT2B receptor expressed in CHO cells at 10 uM after 60 mins by scintillation counting; assay type: cell-based
[9] = molecular target: 5-hydroxytryptamine receptor 2C (Homo sapiens) (UniProt P28335); assay: Displacement of [3H]mesulergine from human recombinant 5HT2C receptor expressed in HEK293 cells at 10 uM after 120 mins by scintillation counting; assay type: cell-based
Rattus norvegicus [10] = species: Rattus norvegicus; assay: Displacement of [3H]DTG from sigma opioid receptor in rat cerebral cortex at 10 uM after 120 mins by scintillation counting; assay type: tissue-based
[11] = molecular target: B2 bradykinin receptor (Homo sapiens) (UniProt P30411); assay: Displacement of [3H]bradykinin from human recombinant bradykinin B2 receptor expressed in CHO cells at 10 uM after 60 mins by scintillation counting; assay type: cell-based
[12] = molecular target: Calcitonin gene-related peptide type 1 receptor (Homo sapiens) (UniProt Q16602); assay: Displacement of [125I]hCGRPa from human recombinant CGRP receptor expressed in CHO cells at 10 uM after 90 mins by scintillation counting; assay type: cell-based
[13] = molecular target: C-C chemokine receptor type 1 (Homo sapiens) (UniProt P32246); assay: Displacement of [125I]MIP-1a from human recombinant CCR1 receptor expressed in HEK293 cells at 10 uM after 120 mins by scintillation counting; assay type: cell-based
[14] = molecular target: Pituitary adenylate cyclase-activating polypeptide type I receptor (Homo sapiens) (UniProt P41586); assay: Displacement of [125I]PACAP1-27 from human recombinant PAC1 receptor expressed in CHO cells at 10 uM after 120 mins by scintillation counting; assay type: cell-based
[15] = molecular target: Vasoactive intestinal polypeptide receptor 1 (Homo sapiens) (UniProt P32241); assay: Displacement of [125I]VIP from human recombinant VPAC1 receptor expressed in CHO cells at 10 uM after 60 mins by scintillation counting; assay type: cell-based
[16] = molecular target: Vasopressin V1a receptor (Homo sapiens) (UniProt P37288); assay: Displacement of [3H]AVP from human recombinant vasopressin V1a receptor expressed in CHO cells at 10 uM after 60 mins by scintillation counting; assay type: cell-based
Rattus norvegicus [17] = species: Rattus norvegicus; assay: Displacement of [35S]TBPS from GABA gated chloride channel in rat cerebral cortex at 10 uM after 120 mins by scintillation counting; assay type: tissue-based
[18] = molecular target: L-type calcium channel (verapamil binding site) (Rattus norvegicus, UniProt P22002+P27732+Q02485); assay: Displacement of [3H]verapamil from verapamil binding site of L-type calcium channel in rat cerebral cortex at 10 uM after 120 mins by scintillation counting; assay type: tissue-based; settings: probe [3H]verapamil, read-out: Activity
Rattus norvegicus [19] = species: Rattus norvegicus; assay: Displacement of [125I]a-dendrotoxin from potassium channel in rat cerebral cortex at 10 uM after 60 mins by scintillation counting; assay type: tissue-based
[20] = molecular target: Small conductance calcium-activated potassium channel (Rattus norvegicus) (UniProt P70604+P70606+P70605); assay: Displacement of [125I]apamin from SK […] channel in rat cerebral cortex at 10 uM after 60 mins by scintillation counting; assay type: tissue-based
[21] = molecular target: Sodium-dependent dopamine transporter (Homo sapiens) (UniProt Q01959); assay: Displacement of [3H]BTCP from human recombinant DAT expressed in CHO cells at 10 uM after 120 mins by scintillation counting; assay type: cell-based
[22] = molecular target: Sodium-dependent noradrenaline transporter (Homo sapiens) (UniProt P23975); assay: Displacement of [3H]nisoxetine from human recombinant NET expressed in CHO cells at 10 uM after 120 mins by scintillation counting; assay type: cell-based
[23] = Protein binding in rat plasma; assay type: ADME, cell-free; settings: read-out: PPB (converted)
P2X purinoceptor 4 = P2X purinoceptor 4 (Homo sapiens, UniProt Q99571); assay: Antagonist activity at P2X4 receptor; assay type: functional
P2X purinoceptor 7 = P2X purinoceptor 7 (Homo sapiens, UniProt Q99572); assay: Antagonist activity at P2X7 receptor; assay type: functional
Hepatocyte = assay: Metabolic stability in rat hepatocytes; assay type: ADME, cell-based
[24] = molecular target: Gastrin/cholecystokinin type B receptor (Homo sapiens) (UniProt P32239); assay: Displacement of [125I]CCK-8s from human recombinant CCK2 receptor expressed in CHO cells at 10 uM after 60 mins by scintillation counting; assay type: cell-based
[25] = molecular target: Substance-K receptor (Homo sapiens) (UniProt P21452); assay: Displacement of [125I]NKA from human recombinant NK2 receptor expressed in CHO cells at 10 uM after 60 mins by scintillation counting; assay type: cell-based
[26] = molecular target: Neuropeptide Y receptor type 1 (Homo sapiens) (UniProt P25929); assay: Displacement of [125I]peptideYY from neuropeptide Y1 receptor in human SK-N-MC cells at 10 uM after 120 mins by scintillation counting; assay type: cell-based
[27] = molecular target: Neuropeptide Y receptor type 2 (Homo sapiens) (UniProt P49146); assay: Displacement of [125I]peptideYY from neuropeptide Y2 receptor in human KAN-TS cells at 10 uM after 60 mins by scintillation counting; assay type: cell-based
CHO = assay: Displacement of [3H]DADLE from human recombinant delta2 opioid receptor expressed in CHO cells at 10 uM after 120 mins by scintillation counting; assay type: cell-based
[28] = molecular target: Kappa-type opioid receptor (Rattus norvegicus) (UniProt P34975); assay: Displacement of [3H]U 69593 from rat recombinant kappa opioid receptor expressed in CHO cells at 10 uM after 60 mins by scintillation counting; assay type: cell-based
[29] = molecular target: Nociceptin receptor (Homo sapiens) (UniProt P41146); assay: Displacement of [3H]nociceptin from human recombinant NOP receptor expressed in HEK293 cells at 10 uM after 60 mins by scintillation counting; assay type: cell-based

Chain of Gastrin/cholecystokinin type B receptor (Homo sapiens) (P32239 whole entry): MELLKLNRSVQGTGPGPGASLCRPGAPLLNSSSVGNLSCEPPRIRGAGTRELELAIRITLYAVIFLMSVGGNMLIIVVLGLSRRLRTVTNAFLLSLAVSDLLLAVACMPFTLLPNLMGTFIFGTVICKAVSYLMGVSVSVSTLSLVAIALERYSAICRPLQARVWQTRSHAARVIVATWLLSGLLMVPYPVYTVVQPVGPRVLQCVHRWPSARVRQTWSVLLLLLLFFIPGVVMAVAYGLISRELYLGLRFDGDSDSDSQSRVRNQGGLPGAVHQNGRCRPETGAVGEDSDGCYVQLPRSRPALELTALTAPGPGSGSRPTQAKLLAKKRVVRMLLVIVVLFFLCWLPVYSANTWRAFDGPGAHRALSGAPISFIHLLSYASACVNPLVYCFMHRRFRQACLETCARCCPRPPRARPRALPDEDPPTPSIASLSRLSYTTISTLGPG
Chain of D(1B) dopamine receptor (Homo sapiens) (P21918 whole entry): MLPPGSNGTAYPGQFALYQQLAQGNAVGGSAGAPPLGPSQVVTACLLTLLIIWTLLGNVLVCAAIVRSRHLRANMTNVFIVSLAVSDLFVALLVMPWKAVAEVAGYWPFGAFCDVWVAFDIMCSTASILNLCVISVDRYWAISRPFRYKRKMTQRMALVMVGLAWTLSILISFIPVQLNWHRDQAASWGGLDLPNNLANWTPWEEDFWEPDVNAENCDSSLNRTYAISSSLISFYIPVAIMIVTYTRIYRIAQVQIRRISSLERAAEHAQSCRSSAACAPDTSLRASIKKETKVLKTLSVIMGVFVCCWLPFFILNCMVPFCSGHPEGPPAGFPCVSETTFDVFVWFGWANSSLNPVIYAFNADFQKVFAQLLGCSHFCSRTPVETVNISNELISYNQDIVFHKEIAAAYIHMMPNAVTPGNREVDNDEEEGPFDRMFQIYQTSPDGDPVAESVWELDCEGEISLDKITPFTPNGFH
Chain of Vasoactive intestinal polypeptide receptor 1 (Homo sapiens) (P32241 whole entry): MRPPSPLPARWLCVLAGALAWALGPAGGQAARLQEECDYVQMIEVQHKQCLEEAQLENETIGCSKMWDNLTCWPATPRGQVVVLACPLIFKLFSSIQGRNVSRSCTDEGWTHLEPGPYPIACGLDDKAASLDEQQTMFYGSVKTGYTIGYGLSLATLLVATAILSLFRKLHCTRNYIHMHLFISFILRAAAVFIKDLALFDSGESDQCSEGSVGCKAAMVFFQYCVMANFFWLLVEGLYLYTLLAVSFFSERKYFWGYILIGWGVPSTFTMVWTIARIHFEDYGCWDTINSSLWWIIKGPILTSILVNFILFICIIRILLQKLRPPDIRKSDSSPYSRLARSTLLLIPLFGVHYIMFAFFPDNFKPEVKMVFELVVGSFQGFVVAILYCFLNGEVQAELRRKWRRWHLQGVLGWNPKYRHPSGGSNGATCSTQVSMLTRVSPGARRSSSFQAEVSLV
Chain of Sodium-dependent dopamine transporter (Homo sapiens) (Q01959 whole entry): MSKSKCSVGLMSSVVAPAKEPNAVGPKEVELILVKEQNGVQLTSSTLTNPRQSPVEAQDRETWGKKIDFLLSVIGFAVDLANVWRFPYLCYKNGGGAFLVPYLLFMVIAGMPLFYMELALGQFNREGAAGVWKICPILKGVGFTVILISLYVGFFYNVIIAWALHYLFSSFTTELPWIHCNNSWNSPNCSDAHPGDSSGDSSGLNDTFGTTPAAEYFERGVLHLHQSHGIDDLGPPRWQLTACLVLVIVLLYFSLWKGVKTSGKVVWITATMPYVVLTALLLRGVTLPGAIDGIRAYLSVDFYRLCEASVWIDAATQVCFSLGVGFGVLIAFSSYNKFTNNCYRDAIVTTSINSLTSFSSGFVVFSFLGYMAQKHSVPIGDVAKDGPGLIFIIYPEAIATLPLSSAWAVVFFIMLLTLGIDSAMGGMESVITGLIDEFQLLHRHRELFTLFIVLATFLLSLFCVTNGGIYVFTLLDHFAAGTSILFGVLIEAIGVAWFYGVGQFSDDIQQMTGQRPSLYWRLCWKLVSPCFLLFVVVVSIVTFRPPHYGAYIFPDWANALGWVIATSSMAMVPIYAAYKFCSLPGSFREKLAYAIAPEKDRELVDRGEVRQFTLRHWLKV
Chain of Calcitonin gene-related peptide type 1 receptor (Homo sapiens) (Q16602 whole entry): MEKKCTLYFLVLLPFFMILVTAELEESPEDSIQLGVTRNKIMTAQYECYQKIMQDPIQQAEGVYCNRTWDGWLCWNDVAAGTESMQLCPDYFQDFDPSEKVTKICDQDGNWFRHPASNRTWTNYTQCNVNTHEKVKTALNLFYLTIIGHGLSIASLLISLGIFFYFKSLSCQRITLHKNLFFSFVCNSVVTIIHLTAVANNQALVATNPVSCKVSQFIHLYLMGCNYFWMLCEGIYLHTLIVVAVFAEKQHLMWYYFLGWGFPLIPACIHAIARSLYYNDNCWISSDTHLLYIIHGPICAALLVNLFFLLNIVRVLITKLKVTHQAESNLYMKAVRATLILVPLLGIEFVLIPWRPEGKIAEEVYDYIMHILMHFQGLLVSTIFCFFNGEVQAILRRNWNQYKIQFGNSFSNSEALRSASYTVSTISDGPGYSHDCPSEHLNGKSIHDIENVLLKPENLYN
Chain of Vasopressin V1a receptor (Homo sapiens) (P37288 whole entry, looked up): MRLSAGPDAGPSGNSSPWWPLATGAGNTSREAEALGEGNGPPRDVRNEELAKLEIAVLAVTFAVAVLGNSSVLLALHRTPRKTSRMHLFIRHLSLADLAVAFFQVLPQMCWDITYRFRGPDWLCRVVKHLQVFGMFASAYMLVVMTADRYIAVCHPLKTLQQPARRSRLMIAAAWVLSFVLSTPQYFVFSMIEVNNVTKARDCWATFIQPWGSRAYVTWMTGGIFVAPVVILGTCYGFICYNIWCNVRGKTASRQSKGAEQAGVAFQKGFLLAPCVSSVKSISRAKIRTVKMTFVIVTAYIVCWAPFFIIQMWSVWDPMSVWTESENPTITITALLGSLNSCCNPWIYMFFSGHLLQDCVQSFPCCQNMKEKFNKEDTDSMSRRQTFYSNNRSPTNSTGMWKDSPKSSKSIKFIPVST
Chain of 5-hydroxytryptamine receptor 2C (Homo sapiens) (P28335 whole entry): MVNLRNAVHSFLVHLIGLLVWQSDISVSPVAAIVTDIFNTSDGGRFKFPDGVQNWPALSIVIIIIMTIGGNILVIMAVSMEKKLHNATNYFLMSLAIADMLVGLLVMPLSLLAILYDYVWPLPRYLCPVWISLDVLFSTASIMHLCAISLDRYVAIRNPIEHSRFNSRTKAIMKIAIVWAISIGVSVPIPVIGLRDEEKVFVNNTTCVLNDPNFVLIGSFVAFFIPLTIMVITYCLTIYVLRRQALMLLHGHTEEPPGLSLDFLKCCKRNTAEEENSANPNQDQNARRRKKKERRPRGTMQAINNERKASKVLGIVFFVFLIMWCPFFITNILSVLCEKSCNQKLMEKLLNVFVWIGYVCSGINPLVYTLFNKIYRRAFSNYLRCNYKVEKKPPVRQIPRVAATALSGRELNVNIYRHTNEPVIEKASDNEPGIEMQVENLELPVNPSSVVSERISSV
Chain of D(2) dopamine receptor (Homo sapiens) (P14416 whole entry): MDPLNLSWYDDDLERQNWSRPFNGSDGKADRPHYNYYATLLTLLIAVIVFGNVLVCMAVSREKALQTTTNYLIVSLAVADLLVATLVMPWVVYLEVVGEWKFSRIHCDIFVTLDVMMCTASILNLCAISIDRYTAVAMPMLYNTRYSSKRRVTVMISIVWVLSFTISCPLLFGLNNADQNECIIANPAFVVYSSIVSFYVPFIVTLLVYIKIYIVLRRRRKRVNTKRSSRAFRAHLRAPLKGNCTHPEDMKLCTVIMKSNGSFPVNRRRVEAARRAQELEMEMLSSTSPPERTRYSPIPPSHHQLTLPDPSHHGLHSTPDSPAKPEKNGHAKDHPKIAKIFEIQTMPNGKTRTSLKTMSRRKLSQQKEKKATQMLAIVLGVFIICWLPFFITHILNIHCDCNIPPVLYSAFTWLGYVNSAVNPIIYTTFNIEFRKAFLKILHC
Chain of Substance-K receptor (Homo sapiens) (P21452 whole entry): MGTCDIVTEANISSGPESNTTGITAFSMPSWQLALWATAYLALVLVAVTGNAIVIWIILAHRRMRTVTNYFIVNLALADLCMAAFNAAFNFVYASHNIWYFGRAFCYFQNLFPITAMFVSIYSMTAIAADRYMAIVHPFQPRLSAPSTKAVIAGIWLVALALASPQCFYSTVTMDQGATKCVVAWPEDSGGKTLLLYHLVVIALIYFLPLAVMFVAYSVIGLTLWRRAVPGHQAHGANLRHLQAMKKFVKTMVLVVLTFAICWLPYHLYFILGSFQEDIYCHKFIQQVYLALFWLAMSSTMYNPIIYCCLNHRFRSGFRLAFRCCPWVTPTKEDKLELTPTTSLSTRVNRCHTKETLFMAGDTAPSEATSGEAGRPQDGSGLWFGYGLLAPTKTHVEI
Chain of 5-hydroxytryptamine receptor 2A (Homo sapiens) (P28223 whole entry): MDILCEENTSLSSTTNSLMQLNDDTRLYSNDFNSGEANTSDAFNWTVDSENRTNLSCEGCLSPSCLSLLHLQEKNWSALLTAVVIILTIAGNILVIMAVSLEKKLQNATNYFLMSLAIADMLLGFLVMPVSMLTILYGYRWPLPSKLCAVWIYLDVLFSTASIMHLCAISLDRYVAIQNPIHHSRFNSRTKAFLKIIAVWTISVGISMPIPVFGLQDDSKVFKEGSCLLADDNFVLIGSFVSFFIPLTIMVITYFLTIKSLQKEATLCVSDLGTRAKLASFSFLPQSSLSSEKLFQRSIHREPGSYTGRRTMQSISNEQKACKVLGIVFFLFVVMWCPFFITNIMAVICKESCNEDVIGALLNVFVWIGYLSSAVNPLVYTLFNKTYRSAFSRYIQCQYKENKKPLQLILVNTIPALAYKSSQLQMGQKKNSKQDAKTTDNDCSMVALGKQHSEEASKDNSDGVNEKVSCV

Question: Which results are given for `CC(=O)N1CCN(C[C@@H](C)NC(=O)c2cc3c(-c4ccccc4)nn(C)c3s2)CC1`?
Answer: Activity [1]: > 50%; Activity [2]: > 50%; Activity [3]: > 50%; Activity [4]: > 50%; Activity (Rattus norvegicus [5]): > 50%; Activity [6]: > 50%; Activity [7]: > 50%; Activity [8]: > 50%; Activity [9]: > 50%; Activity (Rattus norvegicus [10]): > 50%; Activity [11]: > 50%; Activity [12]: > 50%; Activity [13]: > 50%; Activity [14]: > 50%; Activity [15]: > 50%; Activity [16]: > 50%; Activity (Rattus norvegicus [17]): > 50%; inhibition at 2 h, 10 µM [18]: > 50%; Activity (Rattus norvegicus [19]): > 50%; Activity [20]: > 50%; Activity [21]: > 50%; Activity [22]: > 50%; fraction unbound [23]: 0.11; IC50 (P2X purinoceptor 4): > 10 µM; IC50 (P2X purinoceptor 7): > 10 µM; Stability (Hepatocyte): 3.93 µL/min/mg; Activity [24]: > 50%; Activity [25]: > 50%; Activity [26]: > 50%; Activity [27]: > 50%; Activity (CHO): > 50%; Activity [28]: > 50%; Activity [29]: > 50%
